Measurements taken from ChEMBL document CHEMBL4340516, “Synthesis and antitumor activity of novel steroidal imidazolium salt derivatives” (Eur J Med Chem, 2019).

Legend:
Format in all cases: functional, cell-based
HL-60 = assay: Antiproliferative activity against human HL60 cells assessed as reduction in cell viability incubated for 48 hrs by MTS assay; conditions: HL-60, 48 h
SMMC-7721 = assay: Antiproliferative activity against human SMMC7721 cells assessed as reduction in cell viability incubated for 48 hrs by MTS assay; conditions: SMMC-7721, 48 h
MCF7 = assay: Antiproliferative activity against human MCF7 cells assessed as reduction in cell viability incubated for 48 hrs by MTS assay; conditions: MCF7, 48 h
SW480 = assay: Antiproliferative activity against human SW480 cells assessed as reduction in cell viability incubated for 48 hrs by MTS assay; conditions: SW480, 48 h
A549 = assay: Antiproliferative activity against human A549 cells assessed as reduction in cell viability incubated for 48 hrs by MTS assay; conditions: A549, 48 h

Compound	IC50 (HL-60) [µM]	IC50 (SMMC-7721) [µM]	IC50 (MCF7) [µM]	IC50 (SW480) [µM]	IC50 (A549) [µM]
C[C@@H]1CC[C@@]2(OC1)O[C@H]1C[C@H]3[C@@H]4CC=C5C[C@@H](n6ccnc6)CC[C@]5(C)[C@H]4CC[C@]3(C)[C@H]1[C@@H]2C	9.51	9.74	14.5	> 20	9.92
COc1ccc(C(=O)C[n+]2ccn([C@H]3CC[C@H]4[C@@H]5CC=C6C[C@@H](O)CC[C@]6(C)[C@H]5CC[C@]34C)c2)cc1	> 20	> 20	> 20	> 20	> 20
Cc1cc2c(cc1C)[n+](Cc1ccccc1Br)cn2[C@@H]1CC[C@@]2(C)C(=CC[C@H]3[C@@H]4CC[C@H]([C@H](C)CCCC(C)C)[C@@]4(C)CC[C@@H]32)C1	6.96	1.81	14.2	13.2	8.44
C[C@]12CC[C@H]3[C@@H](CC=C4C[C@@H](O)CC[C@@]43C)[C@@H]1CC[C@@H]2n1cc[n+](CC(=O)c2ccccc2)c1	> 20	> 20	> 20	> 20	> 20
C[C@@H]1CC[C@@]2(OC1)O[C@H]1C[C@H]3[C@@H]4CC=C5C[C@H](n6cnc7ccccc76)CC[C@]5(C)[C@H]4CC[C@]3(C)[C@H]1[C@@H]2C	> 20	> 20	> 20	> 20	> 20
CC(C)CCC[C@@H](C)[C@H]1CC[C@H]2[C@@H]3CC=C4C[C@@H](O)CC[C@]4(C)[C@H]3CC[C@]12C [CHOLESTEROL]	> 20	> 20	> 20	> 20	> 20
CC(C)CCC[C@@H](C)[C@H]1CC[C@H]2[C@@H]3CC=C4C[C@H](n5cc[n+](Cc6ccccc6Br)c5)CC[C@]4(C)[C@H]3CC[C@]12C	1.59	0.94	6.02	8.32	7.36
C[C@@H]1CC[C@@]2(OC1)O[C@H]1C[C@H]3[C@@H]4CC=C5C[C@H](n6ccnc6)CC[C@]5(C)[C@H]4CC[C@]3(C)[C@H]1[C@@H]2C	> 20	> 20	> 20	> 20	> 20
CC(C)CCC[C@@H](C)[C@H]1CC[C@H]2[C@@H]3C[C@H](n4ccnc4)[C@]45C[C@H]4CC[C@]5(C)[C@H]3CC[C@]12C	2	2.12	> 20	16.4	11.7

The next compounds have a lower IC50 (HL-60) than those just listed; values first:

IC50 (HL-60) [µM]	IC50 (SMMC-7721) [µM]	IC50 (MCF7) [µM]	IC50 (SW480) [µM]	IC50 (A549) [µM]	Compound
1.52	1.1	6.54	7.18	6.68	COc1ccc(C(=O)C[n+]2ccn([C@H]3C[C@H]4[C@@H]5CC[C@H]([C@H](C)CCCC(C)C)[C@@]5(C)CC[C@@H]4[C@@]4(C)CC[C@@H]5C[C@]534)c2)cc1
1.25	7.32	4.49	7.03	7.18	COc1ccc(C(=O)C[n+]2ccn([C@H]3C[C@H]4[C@@H]5C[C@@H]6O[C@]7(CC[C@@H](C)CO7)[C@@H](C)[C@@H]6[C@@]5(C)CC[C@@H]4[C@@]4(C)CC[C@@H]5C[C@]534)c2)cc1
1.24	4.58	3.86	6.33	6.6	C[C@@H]1CC[C@@]2(OC1)O[C@H]1C[C@H]3[C@@H]4C[C@H](n5cc[n+](Cc6ccccc6Br)c5)[C@]56C[C@H]5CC[C@]6(C)[C@H]4CC[C@]3(C)[C@H]1[C@@H]2C
1.22	2.45	2.53	5.64	4.74	CC(=O)O[C@H]1CC[C@@]2(C)C(=CC[C@H]3[C@@H]4CC[C@H](n5cc[n+](Cc6ccc7ccccc7c6)c5)[C@@]4(C)CC[C@@H]32)C1
0.74	0.44	2.31	2.01	5.02	COc1ccc(C(=O)C[n+]2cn([C@@H]3CC[C@@]4(C)C(=CC[C@H]5[C@@H]6C[C@@H]7O[C@]8(CC[C@@H](C)CO8)[C@@H](C)[C@@H]7[C@@]6(C)CC[C@@H]54)C3)c3cc(C)c(C)cc32)cc1
0.28	1.77	9.87	10.4	8.11	Cc1cc2c(cc1C)[n+](CC(=O)c1ccccc1)cn2[C@@H]1CC[C@@]2(C)C(=CC[C@H]3[C@@H]4CC[C@H]([C@H](C)CCCC(C)C)[C@@]4(C)CC[C@@H]32)C1
